Experimental data reported in US20040242587A1, “Pyrrolo[1,2-b]pyridazine compounds” (Pfizer Inc, priority 2003, published 2004).

melting point	SMILES
105 to 110 °C	Cc1cc(N[C@@H]2CN(C(=O)OCc3ccccc3)C[C@@H]2O)c2cc(C)c(-c3ccc(Cl)cc3Cl)n2n1 [Example 1, Benzyl (3R,4S)-3-{[7-(2,4-dichlorophenyl)-2.6-dimethylpyrrolo[1,2-b]pyridazin-4-yl]amino}-4-hydroxypvrrolidine-1-carboxylate]
193.2 to 196.4 °C	Cc1cc(N2CCC3(CC2)OCCO3)c2cc(C)c(-c3ccc(Cl)cc3Cl)n2n1 [Example 8, 8-[7-(2,4-Dichlorophenyl)-2,6-dimethylpyrrolo[1,2-b]pyridazin-4-yl]-1,4-dioxa-8-azaspiro[4,5]decane]
> 212 °C (dec.)	Cc1cc(N2CC=C(C(N)=O)CC2)c2cc(C)c(-c3ccc(Cl)cc3Cl)n2n1 [Example 11, 1-[7-(2,4-Dichlorophenyl)-2,6-dimethylpyrrolo[1,2-b]pyridazin-4-yl]-1,2,3,6-tetrahydropyridine-4-carboxamide]
169.7 to 171.3 °C	Cc1cc(N2CCC(=O)CC2)c2cc(C)c(-c3ccc(Cl)cc3Cl)n2n1 [Example 9, 1-[7-(2,4-Dichlorophenyl)-2,6-dimethylpyrrolo[1,2-b]pyridazin-4-yl]piperidin-4-one]
